“And” between values parts separate entries of the source, which are not always exact repeats. Equal values may be shown once. Inconclusive results and toxic doses are left out.

In the assay the test system is B6C3F1 mice, ip Sarcoma M5076, median survival T/C. Briefly: NCI In Vivo Anticancer Drug Screen. Data for tumor model Sarcoma M5076 (intraperitoneal) in B6C3F1 mice. As to conditions: endpoint: median survival time, higher = longer survival. The procedure, abridged:
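Antitumour effect is judged in tumour-bearing mice by comparing survival after compound dosing against vehicle-only animals, reported as T/C.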

The mark [1] stands for this setting: dose: 25.0 mg/kg/injection, schedule: Q04DX004 (ip), vehicle: saline with Tween-80.
The mark [2] stands for this setting: dose: 75.0 mg/kg/injection, schedule: Q04DX004 (ip), vehicle: saline with Tween-80.
Where [3] appears, read: dose: 150.0 mg/kg/injection, schedule: Q04DX004 (ip), vehicle: saline with Tween-80.
Where [4] appears, read: dose: 300.0 mg/kg/injection, schedule: Q04DX004 (ip), vehicle: saline with Tween-80.
Setting [5] is: dose: 600.0 mg/kg/injection, schedule: Q04DX004 (ip), vehicle: saline with Tween-80.
Setting [6] is: dose: 25.0 mg/kg/injection, schedule: Q04DX004 (ip), vehicle: Klucel (hydroxypropylcellulose) (HPC).
The mark [7] stands for this setting: dose: 50.0 mg/kg/injection, schedule: Q04DX004 (ip), vehicle: Klucel (hydroxypropylcellulose) (HPC).
[8] abbreviates: dose: 100.0 mg/kg/injection, schedule: Q04DX004 (ip), vehicle: Klucel (hydroxypropylcellulose) (HPC).
[9] abbreviates: dose: 25.0 mg/kg/injection, schedule: Q04DX004 (ip), vehicle: suspension in saline.
[10] abbreviates: dose: 12.5 mg/kg/injection, schedule: Q04DX004 (ip), vehicle: Klucel (hydroxypropylcellulose) (HPC).
The mark [11] stands for this setting: dose: 50.0 mg/kg/injection, schedule: Q04DX004 (ip), vehicle: saline with Tween-80.
[12] abbreviates: dose: 100.0 mg/kg/injection, schedule: Q04DX004 (ip), vehicle: saline with Tween-80.
The mark [13] stands for this setting: dose: 200.0 mg/kg/injection, schedule: Q04DX004 (ip), vehicle: saline with Tween-80.
[14] abbreviates: dose: 400.0 mg/kg/injection, schedule: Q04DX004 (ip), vehicle: saline with Tween-80.
Where [15] appears, read: dose: 1.0 mg/kg/injection, schedule: Q04DX004 (ip), vehicle: Klucel (hydroxypropylcellulose) (HPC).
The mark [16] stands for this setting: dose: 2.0 mg/kg/injection, schedule: Q04DX004 (ip), vehicle: Klucel (hydroxypropylcellulose) (HPC).

On to `CCCCCCC1C(C#N)C(=O)NC(=O)C1C#N` (centres undefined), for which the T/C reads like this: (dose: 40.63 mg/kg/injection, schedule: Q04DX004 (ip), vehicle: Klucel (hydroxypropylcellulose) (HPC)) 95 % of control; (dose: 81.25 mg/kg/injection, schedule: Q04DX004 (ip), vehicle: Klucel (hydroxypropylcellulose) (HPC)) 94 % of control; (dose: 162.5 mg/kg/injection, schedule: Q04DX004 (ip), vehicle: Klucel (hydroxypropylcellulose) (HPC)) 101 % of control; (dose: 325.0 mg/kg/injection, schedule: Q04DX004 (ip), vehicle: Klucel (hydroxypropylcellulose) (HPC)) 92 % of control; (dose: 650.0 mg/kg/injection, schedule: Q04DX004 (ip), vehicle: Klucel (hydroxypropylcellulose) (HPC)) 87 % of control.
Consider `C=C(C)[C@H]1Cc2c(ccc3c2O[C@@H]2COc4cc(OC)c(OC)cc4[C@@H]2C3=O)O1`, for which the T/C is, setting by setting: (dose: 6.25 mg/kg/injection, schedule: Q04DX004 (ip), vehicle: saline with Tween-80) 98 % of control; (dose: 12.5 mg/kg/injection, schedule: Q04DX004 (ip), vehicle: saline with Tween-80) 95 % of control; under setting [1], 97 % of control.
As to `CC(=O)Nc1ccc(O)c(O)c1`, the T/C under setting [2] is 107 % of control; the T/C under setting [3] was 113 % of control; the T/C under setting [4] is 105 % of control; the T/C under setting [5] was 101 % of control; the T/C (dose: 1200.0 mg/kg/injection, schedule: Q04DX004 (ip), vehicle: saline with Tween-80) was 104 % of control.
For `CCC(=O)N=c1sc(SCc2ccccc2)nn1C(=O)SC` (tested in a mixture with another compound), the T/C is, setting by setting: under setting [6], 101 % of control; under setting [7], 96 % of control; under setting [8], 101 % of control; (dose: 200.0 mg/kg/injection, schedule: Q04DX004 (ip), vehicle: Klucel (hydroxypropylcellulose) (HPC)) 89 % of control; (dose: 400.0 mg/kg/injection, schedule: Q04DX004 (ip), vehicle: Klucel (hydroxypropylcellulose) (HPC)) 86 % of control.
On to `C/C(=N\NC(=O)c1ccccc1O)c1cccc(/C(C)=N/NC(=O)c2ccccc2O)n1`, for which the T/C (dose: 25.0 mg/kg/injection, schedule: Q04DX004 (ip), vehicle: saline) is 88 % of control; the T/C under setting [9] was 108 % of control; the T/C (dose: 50.0 mg/kg/injection, schedule: Q04DX004 (ip), vehicle: saline) was 88 % of control; the T/C (dose: 100.0 mg/kg/injection, schedule: Q04DX004 (ip), vehicle: suspension in saline) is 116 % of control.
With `C=C1c2cccc(O)c2C(O)=C2C(=O)[C@]3(O)C(O)=C(C(N)=O)C(=O)[C@@H](N(C)C)[C@@H]3[C@@H](O)[C@H]12`, the T/C under setting [10] was 105 % of control, the T/C under setting [6] is 105 % of control, the T/C under setting [7] is 101 % of control and the T/C under setting [8] is 102 % of control.
As for `O=S(=O)(c1cccc(N=C=S)c1)c1cccc(N=C=S)c1`, the T/C is, setting by setting: under setting [10], 99 % of control; under setting [6], 94 % of control; under setting [7], 103 % of control; under setting [8], 99 % of control.
For `Nc1ccn(C2OC(CO)C(O)C2O)c(=O)n1` (centres undefined), the T/C was 150 % of control (dose: 12.5 mg/kg/injection, schedule: Q01DX009 (ip), vehicle: saline) and 162 % of control (dose: 25.0 mg/kg/injection, schedule: Q01DX009 (ip), vehicle: saline).
With `CC1=Nc2cc(N)nn2C(=O)C1`, the T/C reads like this: under setting [11], 96 % of control; under setting [12], 99 % of control.
Take `O=CC(S)CO` (centres undefined): the T/C runs as follows: under setting [9], 108 % of control; (dose: 50.0 mg/kg/injection, schedule: Q04DX004 (ip), vehicle: suspension in saline) 104 % of control; (dose: 200.0 mg/kg/injection, schedule: Q04DX004 (ip), vehicle: suspension in saline) 118 % of control; (dose: 400.0 mg/kg/injection, schedule: Q04DX004 (ip), vehicle: suspension in saline) 113 % of control.
With `Cc1cn(C2CC(F)C(CO)O2)c(=O)[nH]c1=O` (centres undefined), the T/C by setting is: (dose: 7.5 mg/kg/injection, schedule: Q04DX004 (ip), vehicle: suspension in saline) 111 % of control; (dose: 150.0 mg/kg/injection, schedule: Q04DX004 (ip), vehicle: suspension in saline) 101 % of control; (dose: 300.0 mg/kg/injection, schedule: Q04DX004 (ip), vehicle: suspension in saline) 111 % of control; (dose: 600.0 mg/kg/injection, schedule: Q04DX004 (ip), vehicle: suspension in saline) 117 % of control.
In the case of `CCOC(=O)Nc1cc2c(c(N)n1)N=C(c1ccccc1)CO2`, the T/C was 101 % of control under setting [11], 107 % of control under setting [12], 109 % of control under setting [13] and 105 % of control under setting [14].
Consider `Oc1cc(O)cc(/C=C/c2ccc(O)c(O)c2)c1`, for which the T/C runs as follows: (dose: 12.5 mg/kg/injection, schedule: Q04DX004 (ip), vehicle: DMSO) 97 % of control; (dose: 25.0 mg/kg/injection, schedule: Q04DX004 (ip), vehicle: DMSO) 99 % of control; (dose: 50.0 mg/kg/injection, schedule: Q04DX004 (ip), vehicle: DMSO) 89 % of control; (dose: 100.0 mg/kg/injection, schedule: Q04DX004 (ip), vehicle: DMSO) 91 % of control.
As for `Cc1ccc(-c2c([N+](=O)[O-])c3ccccn3c2[N+](=O)[O-])cc1`, the T/C reads like this: under setting [2], 97 % of control; under setting [3], 87 % of control; under setting [4], 87 % of control; under setting [5], 101 % of control.
Take `NC(=O)c1oc([N+](=O)[O-])c(-c2ccccc2)c1-c1ccccc1`: the T/C is 98 % of control (dose: 37.5 mg/kg/injection, schedule: Q04DX004 (ip), vehicle: saline with Tween-80); 93 % of control under setting [2]; 94 % of control under setting [3]; 89 % of control under setting [4].
With `C/C=C(\C)C(=O)OC1C(C)=C2C(C1OC(=O)CCCCC)C(C)(OC(C)=O)CC(OC(=O)CCC)C1(O)C2OC(=O)C1(C)O` (centres undefined), the T/C under setting [15] was 97 % of control and 101 % of control; the T/C under setting [16] was 92 % of control and 101 % of control.
Regarding `COc1ccc([C@@]23Oc4cc(OC)cc(OC)c4[C@]2(O)[C@H](O)[C@H](C(=O)N(C)C)[C@H]3c2ccccc2)cc1`, the T/C under setting [15] was 97 % of control; the T/C under setting [16] was 105 % of control; the T/C (dose: 4.0 mg/kg/injection, schedule: Q04DX004 (ip), vehicle: Klucel (hydroxypropylcellulose) (HPC)) is 109 % of control; the T/C (dose: 8.0 mg/kg/injection, schedule: Q04DX004 (ip), vehicle: Klucel (hydroxypropylcellulose) (HPC)) is 123 % of control.
As to `COc1c(O)cc2c(c1OC)-c1ccc(SC)c(=O)cc1C(NC(C)=O)CC2` (centres undefined), the T/C runs as follows: (dose: 5.0 mg/kg/injection, schedule: Q04DX004 (ip), vehicle: Klucel (hydroxypropylcellulose) (HPC)) 154 % of control and 196 % of control; (dose: 10.0 mg/kg/injection, schedule: Q04DX004 (ip), vehicle: Klucel (hydroxypropylcellulose) (HPC)) 235 % of control and 237 % of control.
As for `CS(=O)CCN=Cc1ccc(N=Nc2ccc(O)cc2)cc1` (centres undefined), the T/C (dose: 37.0 mg/kg/injection, schedule: Q04DX004 (ip), vehicle: saline with Tween-80) was 109 % of control; the T/C under setting [2] is 90 % of control; the T/C under setting [3] is 87 % of control; the T/C under setting [5] is 87 % of control.
For the compound `CC1=CC(=NN=c2cc(C)n([O-])c(C)c2)C=C(C)[N+]1=O`, the T/C is 122 % of control under setting [12], 121 % of control under setting [13] and 98 % of control under setting [14].
Take `CC[C@@]1(O)C(=O)OCc2c1cc1n(c2=O)Cc2cc3c(N)cccc3nc2-1`: the T/C reads like this: (dose: 0.25 mg/kg/injection, schedule: Q04DX004 (ip), vehicle: saline with Tween-80) 121 % of control; (dose: 1.0 mg/kg/injection, schedule: Q04DX004 (ip), vehicle: saline with Tween-80) 164 % of control and 168 % of control; (dose: 2.0 mg/kg/injection, schedule: Q04DX004 (ip), vehicle: saline with Tween-80) 208 % of control; (dose: 4.0 mg/kg/injection, schedule: Q04DX004 (ip), vehicle: saline with Tween-80) 177 % of control.
With `NS(=O)(=O)OCCCCCCCOS(N)(=O)=O`, the T/C reads like this: under setting [1], 124 % of control; under setting [12], 185 % of control.

These data come from PubChem BioAssay AID292 (DTP/NCI, 2004).
